According to paper PMC5381205, “A Clinically Relevant Variant of the Human Hydrogen Sulfide-Synthesizing Enzyme Cystathionine β-Synthase: Increased CO Reactivity as a Novel Molecular Mechanism of Pathogenicity?” (Oxidative Medicine and Cellular Longevity, 2017):
Where a chain is given by its changes, count along the chain named. pKd: −log10 of the molar value. Values joined by “and” are separate entries in the source; they are usually repeats but may differ in a detail not shown here. Identical values can stand only once. Like-named read-outs stand apart in the source and are kept apart here.

Tests used:
[1] = biological target: T1, human WT CBS (ferrous heme) (Homo sapiens, UniProt P35520); experiment: Stopped-flow kinetics of CO binding to ferrous WT CBS; settings: WT enzyme
T1 construct: employed in this study, corresponding to full-length CBS WT and p.P49L purified in the absence; made in house
T1 sequence (P35520 1-551): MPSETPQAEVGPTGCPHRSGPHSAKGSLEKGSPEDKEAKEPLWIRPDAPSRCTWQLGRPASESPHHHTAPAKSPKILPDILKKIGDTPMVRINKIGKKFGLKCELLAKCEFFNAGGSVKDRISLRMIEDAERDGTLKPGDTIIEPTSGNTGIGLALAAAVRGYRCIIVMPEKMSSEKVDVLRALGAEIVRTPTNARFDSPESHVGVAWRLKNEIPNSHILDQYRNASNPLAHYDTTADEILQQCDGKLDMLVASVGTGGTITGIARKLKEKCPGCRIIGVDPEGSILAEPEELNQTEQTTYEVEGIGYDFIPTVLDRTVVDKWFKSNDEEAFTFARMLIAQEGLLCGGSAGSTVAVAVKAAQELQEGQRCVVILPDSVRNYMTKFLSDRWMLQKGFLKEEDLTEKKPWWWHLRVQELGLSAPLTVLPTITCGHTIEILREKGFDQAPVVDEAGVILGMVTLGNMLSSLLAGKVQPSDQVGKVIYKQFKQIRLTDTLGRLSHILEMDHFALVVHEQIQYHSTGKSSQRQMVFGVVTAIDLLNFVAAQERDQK

[2] = biological target: T2, recombinant human WT CBS (Homo sapiens, UniProt P35520); settings: isolated proteins and bacterial or human cell lysates; cited from earlier work
T2 construct: employed in this study, corresponding to full-length CBS WT and p.P49L purified in the absence; made in house
T2 sequence (P35520 1-551): T1 sequence (P35520 1-551)

[3] = biological target: T3, human CBS p.P49L (ferrous heme) (Homo sapiens, UniProt P35520, P49L); experiment: Stopped-flow kinetics of CO binding to ferrous CBS p.P49L; settings: for CO binding fitted rate constant k2 / CO binding fitted rate constant k1 / CO binding fitted rate constant k3: 1 mM CO, 25°C; for CO binding fitted rate constant k2: 30% reaction amplitude
T3 construct: Recombinant full-length human CBS p.P49L was expressed and purified; made in house; host or cells: E. coli
T3 sequence (P35520 1-551 P49L): T1 sequence (P35520 1-551) with P49L
Method: (§1) Time-resolved absorption spectroscopy experiments were carried out in a thermostated stopped-flow instrument (DX.17MV, Applied Photophysics), equipped with a photodiode-array (light path, 1 cm). To avoid light-induced artifacts, the intensity of the white-light incident beam was decreased and a filter cutting UV light at λ < 360 nm was employed. Absorption spectra were recorded with an acquisition time of 10 ms per spectrum according to a logarithmic time scale. All reactions were carried out at 25°C in buffer A. CBS p.P49L was thoroughly flushed with nitrogen, after which glucose oxidase (4 units·ml^−1), catalase (13 μg·ml^−1), superoxide dismutase (12 units·ml^−1), and glucose (3 mM) were added to scavenge oxygen, hydrogen peroxide, and superoxide anion. The protein was then placed on ice, protected from light to prevent possible damaging photoreactions. When indicated, CBS p.P49L was incubated with AdoMet for ≥10 minutes, prior to reduction with 90 µM sodium dithionite. CO association kinetics were studied by mixing in the stopped-flow apparatus reduced CBS p.P49L, in the absence or presence of AdoMet, with CO solutions and the spectra recorded over time. CO dissociation kinetics were evaluated by mixing the Fe(II)-CO adduct of CBS p.P49L with NO• stock solutions, prepared by equilibrating degassed ultra-pure water with NO• gas at 1 atm, further kept on ice protected from light.
(§2) CO affinity titrations and CO binding and dissociation kinetic data were analyzed with the software MATLAB (Mathworks). Global fit analysis of spectral data was performed by singular value decomposition analysis combined with curve fitting.

[4] = biological target: T2, recombinant human WT CBS; experiment: H2S synthesis assay (amperometric and lead acetate methods), WT CBS; assay type: biochemical; settings: for H2S-synthesizing activity stimulation by AdoMet: 500 μM AdoMet, 37°C
Method: (§3) H2S production by recombinant human CBS variants was measured at 37°C, either by amperometry using a H2S-selective electrode (World Precision Instruments) or by the lead acetate method. Purified CBS (0.5–1 μM) was incubated for 10 minutes with 50 μM PLP, 260 U/ml catalase, and 0.4–2.0 mM homocysteine in the absence or presence of 0.5 mM AdoMet, after which 10 mM cysteine was added to trigger the reaction. Amperometric assays were performed using an ISO-H2S-2 hydrogen sulfide sensor coupled to an Apollo 4000 Free Radical Analyzer (World Precision Instruments). After recording H2S production for 3 minutes, the electrode was internally calibrated by adding 4 μM NaHS (corresponding to 2 μM H2S at pH 7.0). Finally, 50 μM o-acetylserine and 200 nM Entamoeba histolytica o-acetylserine sulfhydrylase were added to the reaction mixture to remove H2S from solution and bring the signal back to baseline. Activity assays by the lead acetate method were carried out in a thermostated cuvette under stirring, according to [5]. Lead acetate (400 μM) was added to the reaction mix prior to cysteine addition and H2S production monitored at 390 nm in an Agilent Cary-60 spectrophotometer.

[5] = biological target: T4, recombinant human CBS p.P49L (Homo sapiens, UniProt P35520, P49L); experiment: H2S synthesis assay (amperometric and lead acetate methods), CBS p.P49L; assay type: biochemical; settings: 37°C; for H2S-synthesizing activity stimulation by AdoMet: 500 μM AdoMet
T4 construct: Recombinant full-length human CBS p.P49L was expressed and purified; made in house; host or cells: E. coli
T4 sequence (P35520 1-551 P49L): T1 sequence (P35520 1-551) with P49L
Method: as §3

[6] = biological target: T5, human WT CBS Fe(II)-CO adduct (Homo sapiens, UniProt P35520); experiment: Stopped-flow kinetics of CO dissociation (displacement by NO•) from WT CBS; assay type: binding; settings: WT enzyme; NO• 900 µM after mixing; 75% relative amplitude; data not shown
T5 construct: employed in this study, corresponding to full-length CBS WT and p.P49L purified in the absence; made in house
T5 sequence (P35520 1-551): T1 sequence (P35520 1-551)

[7] = biological target: T3, human CBS p.P49L (ferrous heme); experiment: Anaerobic CO titrations of reduced CBS p.P49L (UV-visible absorption); assay type: binding; settings: 20°C
Method: UV-visible absorption spectra of oxidized and reduced CBS p.P49L and WT were recorded in an Agilent Cary-60 spectrophotometer. Anaerobic titrations of reduced CBS p.P49L with CO were performed at 20°C in an Agilent Cary-60 or a Shimadzu UVPC-1800 spectrophotometer. Gas exchange was prevented either by filling the quartz cuvette and sealing it with a rubber-cap or by adding mineral oil on top of the aqueous medium. Anaerobic conditions were ensured by nitrogen flushing and addition of glucose oxidase (4 units·ml^−1), catalase (13 μg·ml^−1), superoxide dismutase (12 units·ml^−1), and glucose (3 mM) to scavenge contaminant oxygen, hydrogen peroxide, and superoxide anion. CBS p.P49L and WT (1.4–1.6 μM in heme) were reduced with 90 μM sodium dithionite, diluted from a 45 mM stock solution (quantitated using ε314 nm = 8,043 M^−1·cm^−1 [50]). CO stock solutions were prepared by equilibrating thoroughly degassed buffer A with the pure gas at 1 atm, yielding 1 mM CO at 20°C. After each CO addition with gas-tight Hamilton syringes, the spectral changes were visually inspected in real time and a new addition was immediately made when no more changes were observed.
According to [16, 19, 20, 51], two apparent Kd (Kd1 and Kd2) were used to satisfactorily fit the CO affinity data. The Kd1 and Kd2 values were obtained by fitting the data to (1), where PL is the concentration of CO-bound CBS p.P49L, PT and LT are, respectively, the total CBS p.P49L and CO concentrations, and α1 and α2 are, respectively, the protein fractions binding CO at higher (Kd1) and lower (Kd2) affinity. (1) PL=α1PT+LT+Kd1−PT+LT+Kd1^2−4PTLT+α2PT+LT+Kd2−PT+LT+Kd2^2−4PTLT/2.
as §2

[8] = biological target: T6, human CBS p.P49L Fe(II)-CO adduct (Homo sapiens, UniProt P35520, P49L); experiment: Stopped-flow kinetics of CO dissociation (displacement by NO•) from CBS p.P49L; assay type: binding; settings: for CO displacement by NO• rate constant k2: 25% reaction amplitude
T6 construct: Recombinant full-length human CBS p.P49L was expressed and purified; made in house; host or cells: E. coli
T6 sequence (P35520 1-551 P49L): T1 sequence (P35520 1-551) with P49L
Method: as §1, §2

[9] = AdoMet-bound CBS p.P49L, 35% reaction amplitude

For C[S+](CC[C@H](N)C(=O)[O-])C[C@H]1O[C@@H](n2cnc3c(N)ncnc32)[C@H](O)[C@@H]1O (stereo partly drawn) [AdoMet, S-Adenosyl-L-methionine], the “fold increase in the CO association rate in the presence of AdoMet” value [1] is given as ~ 2 fold, the “AdoMet activation factor of CBS enzymatic activity, as usually reported” value [2] is given as 2–5 fold and the “fold increase in the CO association rate in the presence of AdoMet” value ([3]; p.P49L variant) is given as ~ 4.5 fold. The “AdoMet activation factor observed for the WT enzyme” value ([4]; WT enzyme, overall) was no more than 2 fold, the “H2S-synthesizing activity stimulation by AdoMet” value ([4]; WT purified in the absence of PLP (PLP-untreated)) was 1.5 fold and the “H2S-synthesizing activity stimulation by AdoMet” value ([4]; WT purified in the presence of 20 μM PLP (PLP-treated)) was 1.9 fold. For the same compound, the “H2S-synthesizing activity stimulation by AdoMet” value ([5]; p.P49L purified in the absence of PLP (PLP-untreated)) was 1.4 fold and the “H2S-synthesizing activity stimulation by AdoMet” value ([5]; p.P49L purified in the presence of 20 μM PLP (PLP-treated)) was 1.1 fold.
In the case of [C-]#[O+] [CO, Carbon monoxide], the “CO binding fitted rate constant k2” value ([3]; AdoMet-bound CBS p.P49L) was 0.26 s⁻¹, the “CO binding fitted rate constant k1” value [3, 9] was 2.55 s⁻¹ and the “CO binding fitted rate constant k3” value [3, 9] was 0.022 s⁻¹. The “CO binding fitted rate constant k1” value ([3]; AdoMet-free CBS p.P49L, 25% reaction amplitude) was 0.48 s⁻¹, the “CO binding fitted rate constant k2” value ([3]; AdoMet-free CBS p.P49L) was 0.05 s⁻¹ and the “CO binding fitted rate constant k3” value ([3]; AdoMet-free CBS p.P49L, 45% reaction amplitude) was 0.006 s⁻¹. The “CO displacement by NO• rate constant k1” value [6] was 2.0 ± 0.1 s⁻¹, the pKd ([7]; AdoMet-bound p.P49L CBS (500 μM AdoMet), 30% relative amplitude, read-out: KdCO,2) was 5.82 and 5.68 and the pKd ([7]; AdoMet-bound p.P49L CBS (500 μM AdoMet), 70% relative amplitude, upper limit, read-out: KdCO,1) was no less than 7.52. For the same compound, the pKd ([7]; AdoMet-free p.P49L CBS, higher-affinity fraction, 60% relative amplitude, read-out: KdCO,1) was 7.22 and 7.30, the pKd ([7]; AdoMet-free p.P49L CBS, lower-affinity fraction, 40% relative amplitude, read-out: KdCO,2) was 4.68 and 4.66 and the “CO displacement by NO• rate constant k2” value ([8]; AdoMet-bound CBS p.P49L (500 μM before mixing), 900 μM NO•, Figure 5(b) fit) was 0.038 s⁻¹. The “CO displacement by NO• rate constant k1” value ([8]; AdoMet-bound CBS p.P49L (500 μM before mixing), 900 μM NO•, 75% reaction amplitude, Figure 5(b) fit) was 1.96 s⁻¹, the “CO displacement by NO• rate constant k2” value ([8]; AdoMet-free CBS p.P49L, 900 μM NO•, Figure 5(b) fit) was 0.035 s⁻¹ and the “CO displacement by NO• rate constant k1” value ([8]; AdoMet-free CBS p.P49L, 900 μM NO•, 75% reaction amplitude, Figure 5(b) fit) was 1.93 s⁻¹. For the same compound, the “CO displacement by NO• rate constant k1” value ([8]; CBS p.P49L, NO• 900 µM after mixing, 75% relative amplitude, no effect of AdoMet) was 2.0 ± 0.1 s⁻¹.
With Cc1ncc(COP(=O)(O)O)c(C=O)c1O [PLP, Pyridoxal 5′-phosphate] the “basal H2S-synthesizing activity of p.P49L after PLP supplementation along the purification” value ([5]; p.P49L purified in the presence of 20 μM PLP (PLP-treated), compared with WT) was “basal activity similar to the WT enzyme”.
